In PMC10840383, “Clinical features, functional consequences, and rescue pharmacology of missense GRID1 and GRID2 human variants” (Human Molecular Genetics, 2023):

Key:
GluD2-S646P = target: T1, GluD2-S646P (Rattus norvegicus, UniProt Q63226, S646P); experiment: TEVC of constitutive current, Xenopus oocytes expressing GluD2-S646P; format: cell-based; conditions: positive = increase, negative = decrease of activity
T1 construct: expressed in transfected cells; host or cells: Xenopus laevis oocytes injected with cRNA
T1 sequence (Q63226 24-1007 S646P): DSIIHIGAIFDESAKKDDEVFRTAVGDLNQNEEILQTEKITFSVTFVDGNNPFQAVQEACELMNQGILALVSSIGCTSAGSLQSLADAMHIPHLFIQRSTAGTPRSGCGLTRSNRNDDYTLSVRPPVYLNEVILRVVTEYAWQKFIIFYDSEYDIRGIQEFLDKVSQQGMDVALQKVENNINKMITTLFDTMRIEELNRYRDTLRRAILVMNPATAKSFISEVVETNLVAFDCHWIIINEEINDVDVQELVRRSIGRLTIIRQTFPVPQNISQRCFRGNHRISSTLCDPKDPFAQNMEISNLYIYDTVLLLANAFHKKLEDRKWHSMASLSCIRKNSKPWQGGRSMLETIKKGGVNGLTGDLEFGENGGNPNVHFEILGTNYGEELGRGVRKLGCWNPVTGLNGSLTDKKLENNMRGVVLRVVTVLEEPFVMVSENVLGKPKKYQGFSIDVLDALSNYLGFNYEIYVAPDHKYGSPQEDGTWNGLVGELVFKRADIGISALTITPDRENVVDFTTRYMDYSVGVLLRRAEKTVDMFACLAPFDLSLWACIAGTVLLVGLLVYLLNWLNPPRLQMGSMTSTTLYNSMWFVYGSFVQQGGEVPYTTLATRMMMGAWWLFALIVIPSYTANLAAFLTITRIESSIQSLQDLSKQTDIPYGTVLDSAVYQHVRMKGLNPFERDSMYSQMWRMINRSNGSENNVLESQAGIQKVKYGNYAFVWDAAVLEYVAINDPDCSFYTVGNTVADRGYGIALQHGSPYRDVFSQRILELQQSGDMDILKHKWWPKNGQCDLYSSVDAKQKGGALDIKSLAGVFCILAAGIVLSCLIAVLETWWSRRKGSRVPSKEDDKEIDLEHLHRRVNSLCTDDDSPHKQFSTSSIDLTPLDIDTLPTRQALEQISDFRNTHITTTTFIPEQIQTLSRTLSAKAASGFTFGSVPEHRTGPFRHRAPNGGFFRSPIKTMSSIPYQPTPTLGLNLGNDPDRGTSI

GluD1-WT = target: T2, GluD1-WT (Homo sapiens, UniProt Q9ULK0); experiment: TEVC of constitutive current, Xenopus oocytes expressing GluD1-WT; format: cell-based; conditions: positive = increase, negative = decrease of activity
T2 construct: expressed in transfected cells; host or cells: Xenopus laevis oocytes injected with cRNA
T2 sequence (Q9ULK0 21-1009): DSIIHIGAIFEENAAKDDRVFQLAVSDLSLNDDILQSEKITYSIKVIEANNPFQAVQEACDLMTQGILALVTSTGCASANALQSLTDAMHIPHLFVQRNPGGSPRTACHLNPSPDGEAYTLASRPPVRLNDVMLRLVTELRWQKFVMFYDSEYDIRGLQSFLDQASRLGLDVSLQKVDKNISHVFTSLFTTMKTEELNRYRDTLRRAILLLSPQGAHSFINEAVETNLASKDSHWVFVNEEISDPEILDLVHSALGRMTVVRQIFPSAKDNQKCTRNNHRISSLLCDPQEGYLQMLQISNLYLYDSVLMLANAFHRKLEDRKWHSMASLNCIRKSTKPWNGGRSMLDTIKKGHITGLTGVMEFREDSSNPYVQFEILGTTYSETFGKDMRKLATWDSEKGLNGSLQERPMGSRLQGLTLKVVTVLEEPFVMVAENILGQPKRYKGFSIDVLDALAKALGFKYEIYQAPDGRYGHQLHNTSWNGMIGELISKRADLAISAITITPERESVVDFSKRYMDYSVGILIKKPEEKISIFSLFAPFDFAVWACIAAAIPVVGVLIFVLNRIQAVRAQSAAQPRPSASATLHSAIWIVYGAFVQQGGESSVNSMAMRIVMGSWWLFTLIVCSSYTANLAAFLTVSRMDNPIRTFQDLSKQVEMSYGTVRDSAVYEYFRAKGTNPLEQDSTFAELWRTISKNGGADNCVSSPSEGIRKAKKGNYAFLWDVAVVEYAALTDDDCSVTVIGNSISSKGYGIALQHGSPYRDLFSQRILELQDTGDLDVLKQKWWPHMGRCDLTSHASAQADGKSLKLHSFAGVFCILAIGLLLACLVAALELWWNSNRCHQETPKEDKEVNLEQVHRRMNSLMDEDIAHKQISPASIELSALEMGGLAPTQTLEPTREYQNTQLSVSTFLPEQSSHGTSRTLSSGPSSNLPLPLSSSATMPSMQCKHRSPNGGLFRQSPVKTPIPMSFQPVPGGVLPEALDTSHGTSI

Structure (SMILES): N[C@H](CO)C(=O)O [D-serine]
- D-Serine effect (Baseline −10 mM D-Serine) (GluD2-S646P; 10 mM D-serine): 5.2 ± 6.0 (11) nA
- D-Serine effect (Baseline −10 mM D-Serine) (GluD1-WT; 10 mM D-serine): 2.3 ± 2.9 (13) nA

Structure (SMILES): N=C(N)c1ccc(OCCCCCOc2ccc(C(=N)N)cc2)cc1 [Pentamidine, pentamidine]
- Pentamidine effect (Baseline −100 μM Pentamidine) (GluD2-S646P; 100 μM pentamidine): 6.5 ± 5.4 (11) nA
- Pentamidine effect (Baseline −100 μM Pentamidine) (GluD1-WT; 100 μM pentamidine): 37 ± 11 (14) nA
